Test results as given in patent US20110280940A1, “Di-Vanilloyl And Tri-Vanilloyl Derivatives For Use In Anti-Cancer Therapy” (priority 2008, published 2011).

Experiments:
GSK-3 = experiment: Kinase activity assay, GSK3; type: biochemical, porcine; conditions: 10 μM, 1% DMSO, 15 μM ATP; residual activity
Experimental: Buffer A: 10 mM MgCl2, 1 mM EGTA, 1 mM DTT, 25 mM Tris-HCl pH 7.5, 50 μg heparin/ml. Buffer C: 60 mM β-glycerophosphate, 15 mM p-nitrophenylphosphate, 25 mM Mops (pH 7.2), 5 mM EGTA, 15 mM MgCl2, 1 mM DTT, 1 mM sodium vanadate, 1 mM phenyl phosphate.
Kinase activities were assayed in Buffer A or C, at 30° C., at a final ATP concentration of 15 μM. Blank values were subtracted and activities expressed in % of the maximal activity, i.e. in the absence of inhibitors. Controls were performed with appropriate dilutions of DMSO.
GSK-3 (porcine brain, native) was assayed, as described for CDK1 but in Buffer A and using a GSK-3 specific substrate (GS-1: […]pEDEEE) (Seq. ID NO 1) (pS stands for phosphorylated serine) (Primot et al., 2000, Protein Expr. & Purif. 20 (3), 394-404). GS-1 was synthesized by Millegen (Labege, France).

[1] = test system: PC-3 prostate cancer cells; experiment: MTT colorimetric assay, overall cell growth, PC-3; type: cell-based, human; conditions: Homo sapiens, 72 hours of incubation, read-out: In Vitro IC50 Growth Inhibitory Values, PC-3
In short: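 Seed cells in their own medium and incubate 24 h at 37 °C. Replace medium with compound-containing medium (10^-8 to 10^-4 M) and incubate 72 h.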

`COc1cc(C(=O)OCCOC(=O)c2ccc(O)c(OC)c2)ccc1O` [DLT1, Ethane-1,2-diyl bis-(4-hydroxy-3-methoxybenzoate)] was tested, and the “% ENZYMATIC ACTIVITY, GSK3” value (GSK-3) was 77%.

With `COc1cc(C(=O)O)ccc1O` [vanillic acid, reference compound] the IC50 [1] was > 1000 µM.
